Broadly, the IC50 is the point on the concentration scale where inhibition reaches its midpoint.

The results in this text go back to US20240228469A1, “PCSK9 INHIBITORS AND METHODS OF USE THEREOF” (AstraZeneca AB, priority 2022, published 2024).

In test [1] the target is T1, PCSK9 (Homo sapiens, UniProt Q8NBP7, G670E/V474I). The test is described as follows: Assay 3 PCSK9 LDL-C uptake assay in HepG2 cells. On the set-up: TEV site (C); His6 (C); host or cells: added to HepG2 (ATCC #HB-8065). The following applies: 125 nM PCSK9, pHrodo Red-LDL, read-out: Assay 3 LDL uptake potency. It counts as cell-based. An excerpt: This assay measures for PCSK9 antagonist activity based on a test compound's capacity to restore LDL-C-uptake in HepG2 cells. The assay is based on exogenous PCSK9 and LDL-C complexed with a pH-sensitive dye. Outside the cells, at neutral pH, the pHrodo Red-LDL is dimly fluorescent but upon LDLR mediated endocytosis it fluoresces brightly. PCSK9 traffics the LDLR to intracellular degradation and reduces uptake of LDL-C. Inhibition of PCSK9 reduces LDLR degradation and the increased LDL-C uptake is quantified by fluorescence microscopy.
• Cell medium: MEM supplemented with 10% FBS, 1×NEAA and Sodium Pyruvate • Assay medium: OptiMem supplemented with penicillin/streptomycin • Cells: HepG2 (ATCC #HB-8065)
• 1. Cryopreserved HepG2 cells were thawed in assay medium and centrifuged for 5 min at 250 g. Supernatant was discarded and the cell pellet resuspended in cell medium and counted with a Nucleocounter. Cells were again centrifuged 5 min at 250 g and the pellet was resuspended to 500000 cells/mL in assay medium. • 2. 20 μL of above cell mix was dispensed into black μclear TC treated 384 well plates with Multidrop Combi and left at room temperature for 20 minutes. • 3. Plates were incubated at 37° C., 5% CO2 for 24 h
• 1. Test compounds were prepared in concentration response in DMSO with a half-log dilution factor in DMSO in Echo 384 LDV plates starting at 10 mM. • 2. 30 nL of above test compounds were dispensed with Echo 655 to cells for a top concentration of 10 μM • 3. 10 μL PCSK9 in assay medium was dispensed to cells with Multidrop Combi for 125 nM final concentration in the wells. • 4. Plates were incubated at 37° C., 5% CO2 for 24 h
• 1. 10 μL pHrodo Red-LDL in assay medium was dispensed to cells with Multidrop Combi for […] • 2. Plates were incubated at 37° C., 5% CO2 and imaged with the Incucyte S3 after 4 h and 24 h
Image data was processed using Incucyte 2021, a software to identify cells and red fluorescent intensity. Screener was used to further process data. Data was normalized as % effect of the signal between median values of the on-plate controls of DMSO and 100 nM Evolocumab according to the formula % effect=−100*(x−DMSO)/(Evolocumab−DMSO) where x equals the measured signal. Concentration response data of the normalized values were fitted using a four-parameter logistic fit.

The target of test [2] is T1, PCSK9. The test is described as follows: biochemical.
The target of test [3] is GSK3β (Glycogen synthase kinase-3 beta) (Homo sapiens, UniProt P49841). The test is described as follows: Assay 6 GSK3β assay (ThermoFisher Z-Lyte FRET). The class given is biochemical. The following applies: ATP Conc: 10 μM, geometric mean; read-out: Assay 6 (GSK3β FRET-Z-Lyte Cr) GMean IC50. The procedure: This assay measures the activity of the compounds at GSK33 (Glycogen synthase kinase-3 beta).
The test compounds were screened in 1% DMSO (final) in the well. For 10 point titrations, 3-fold serial dilutions are conducted from the starting concentration of 10 PM.
Bar-coded Corning, low volume NBS, black 384-well plate • 1. 2.5 μL—4× Test Compound or 100 nL 100× plus 2.4 μL kinase buffer • 2. 5 μL—2× Peptide/Kinase Mixture • 3. 2.5 μL—4×ATP Solution • 4. 30-second plate shake • 5. 60-minute Kinase Reaction incubation at room temperature • 6. 5 μL—Development Reagent Solution • 7. 30-second plate shake • 8. 60-minute Development Reaction incubation at room temperature • 9. Read on fluorescence plate reader and analyse the data
In step 2, the 2×GSK3β (GSK3 beta)/Ser/Thr (Glycogen synthase kinase-3 beta/Serine/Threonine) 09 mixture is prepared in 50 mM HEPES (4-(2-hydroxyethyl)-1-piperazineethanesulfonic acid) pH 7.5, 0.01% BRIJ-35, 10 mM MgCl2, 1 mM EGTA (egtazic acid). The final 10 μL Kinase Reaction consists of 0.22-0.92 ng GSK3β (GSK3 beta) and 2 PM Ser/Thr 09 in 50 mM HEPES pH 7.5, 0.01% BRIJ-35, 10 mM MgCl2, 1 mM EGTA.
In step 3 the ATP Solution is diluted to a 4× working concentration in Kinase Buffer (50 mM HEPES pH 7.5, 0.01% BRIJ-35, 10 mM MgCl2, 1 mM EGTA).
In Step 6 the Development Reagent is diluted 1:512 in Development Buffer (10× Novel PKC Lipid Mix: 2 mg/mL Phosphatidyl Serine, 0.2 mg/mL DAG in 20 mM HEPES, pH 7.4, 0.3% CHAPS).
SelectScreen® Kinase Profiling Service uses XLfit from IDBS. The dose response curve is curve fit to model number 205 (sigmoidal dose-response model).

The target of test [4] is T2, potassium ion channel hERG (Homo sapiens, UniProt Q12809).
T2 construct: expressed in transfected cells; host or cells: Chinese hamster ovary K1 (CHO)
The test is described as follows: Assay 5 hERG assay (patch clamp, CHO cells over-expressing hERG). It counts as cell-based. The following applies: SyncroPatch 384PE, room temperature, geometric mean, read-out: Assay 5 (hERG Hu CHO if EPh CR-Syncro) GMean IC50. The procedure:
This assay (human Ether-d-go-go-Related Gene) measures activity of the compounds at the potassium ion channel hERG (human Ether-d-go-go-Related Gene).
Experiments were performed on the SyncroPatch 384PE high throughput patch clamp platform at room temperature and medium resistance chips with 4 patch holes per site. Chinese hamster ovary K1 (CHO) cell lines over-expressing the ion channel of choice (hERG) were used in assay-ready format and kept in liquid nitrogen or were used from live culture. Cells were either thawed and diluted in HBSS or were detached from flasks and resuspended in HBSS. HBSS comprised 140 mM NaCl, 4 mM KCl, 10 mM HEPES and 5 mM Glucose (pH7.4). The internal patch clamp solution was KF 120 mM, KCl 20 mM, HEPES 10 mM, EGTA 10 mM, and 25 PM Escin (pH 7.2). After the sealing process was complete, the external solution was exchanged for external patch clamp solution comprising NaCl 80 mM, KCl 4 mM, HEPES 10 mM, CaCl2 2 mM, MgCl2 1 mM, glucose 5 mM, and NMDG 60 mM (pH 7.4). All solutions were stored at room temperature, except Escin, which was stored at 4° C. All test compounds were dispensed in greiner-bio 384 well plates and tested in a 6 point cumulative assay (final DMSO concentration 0.33%). Only wells that passed previously agreed acceptance criteria for this platform were used in this analysis (30 MegaOhm seal resistance, Z prime >0.4 and current size >0.2 nA). […]
On the technique in general: Block of hERG is tested as a sign of cardiac risk.

T2 sequence (Q12809 whole entry): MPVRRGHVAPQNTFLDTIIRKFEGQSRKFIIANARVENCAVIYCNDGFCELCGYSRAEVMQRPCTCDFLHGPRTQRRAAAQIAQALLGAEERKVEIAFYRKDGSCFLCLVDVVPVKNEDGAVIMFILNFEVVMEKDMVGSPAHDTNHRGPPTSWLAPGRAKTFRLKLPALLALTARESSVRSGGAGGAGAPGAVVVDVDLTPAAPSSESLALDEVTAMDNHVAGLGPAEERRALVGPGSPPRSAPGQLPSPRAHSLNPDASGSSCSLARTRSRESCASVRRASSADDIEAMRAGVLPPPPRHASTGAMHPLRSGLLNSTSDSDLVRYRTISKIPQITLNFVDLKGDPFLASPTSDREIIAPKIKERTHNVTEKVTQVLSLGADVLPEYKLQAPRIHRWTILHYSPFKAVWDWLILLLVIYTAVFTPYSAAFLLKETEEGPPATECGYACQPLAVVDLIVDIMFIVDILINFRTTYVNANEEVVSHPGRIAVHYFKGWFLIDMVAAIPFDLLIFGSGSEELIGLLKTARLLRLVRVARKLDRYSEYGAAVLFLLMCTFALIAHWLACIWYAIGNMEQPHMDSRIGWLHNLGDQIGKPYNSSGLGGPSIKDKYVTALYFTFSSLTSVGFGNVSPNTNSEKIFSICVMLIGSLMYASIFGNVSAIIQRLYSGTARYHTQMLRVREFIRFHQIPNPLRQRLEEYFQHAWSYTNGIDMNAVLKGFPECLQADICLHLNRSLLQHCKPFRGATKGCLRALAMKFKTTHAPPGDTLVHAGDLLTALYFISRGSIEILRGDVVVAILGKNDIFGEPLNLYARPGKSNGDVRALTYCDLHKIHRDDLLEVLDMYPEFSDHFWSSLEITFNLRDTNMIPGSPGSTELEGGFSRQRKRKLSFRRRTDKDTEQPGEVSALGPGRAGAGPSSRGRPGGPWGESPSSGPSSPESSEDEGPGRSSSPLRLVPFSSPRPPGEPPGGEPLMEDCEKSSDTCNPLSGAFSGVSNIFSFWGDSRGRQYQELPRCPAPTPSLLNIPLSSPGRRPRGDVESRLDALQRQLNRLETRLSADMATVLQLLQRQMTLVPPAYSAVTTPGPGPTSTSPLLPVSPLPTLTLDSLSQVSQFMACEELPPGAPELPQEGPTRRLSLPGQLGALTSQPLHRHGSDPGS
Chain of GSK3β (Glycogen synthase kinase-3 beta) (P49841 whole entry): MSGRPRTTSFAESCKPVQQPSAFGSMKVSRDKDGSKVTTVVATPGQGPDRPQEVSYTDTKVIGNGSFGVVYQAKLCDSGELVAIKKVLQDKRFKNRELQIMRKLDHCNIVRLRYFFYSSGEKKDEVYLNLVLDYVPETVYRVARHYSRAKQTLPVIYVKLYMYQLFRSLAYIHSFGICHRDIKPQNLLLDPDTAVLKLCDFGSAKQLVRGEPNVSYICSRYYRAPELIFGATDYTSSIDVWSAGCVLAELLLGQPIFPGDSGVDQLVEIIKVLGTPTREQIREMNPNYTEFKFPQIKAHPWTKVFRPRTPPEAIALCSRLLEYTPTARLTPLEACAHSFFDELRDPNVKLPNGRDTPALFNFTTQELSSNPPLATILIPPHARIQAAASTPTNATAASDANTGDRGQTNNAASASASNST
T1 sequence (Q8NBP7 with tags, fused parts or gaps V474I/G670E): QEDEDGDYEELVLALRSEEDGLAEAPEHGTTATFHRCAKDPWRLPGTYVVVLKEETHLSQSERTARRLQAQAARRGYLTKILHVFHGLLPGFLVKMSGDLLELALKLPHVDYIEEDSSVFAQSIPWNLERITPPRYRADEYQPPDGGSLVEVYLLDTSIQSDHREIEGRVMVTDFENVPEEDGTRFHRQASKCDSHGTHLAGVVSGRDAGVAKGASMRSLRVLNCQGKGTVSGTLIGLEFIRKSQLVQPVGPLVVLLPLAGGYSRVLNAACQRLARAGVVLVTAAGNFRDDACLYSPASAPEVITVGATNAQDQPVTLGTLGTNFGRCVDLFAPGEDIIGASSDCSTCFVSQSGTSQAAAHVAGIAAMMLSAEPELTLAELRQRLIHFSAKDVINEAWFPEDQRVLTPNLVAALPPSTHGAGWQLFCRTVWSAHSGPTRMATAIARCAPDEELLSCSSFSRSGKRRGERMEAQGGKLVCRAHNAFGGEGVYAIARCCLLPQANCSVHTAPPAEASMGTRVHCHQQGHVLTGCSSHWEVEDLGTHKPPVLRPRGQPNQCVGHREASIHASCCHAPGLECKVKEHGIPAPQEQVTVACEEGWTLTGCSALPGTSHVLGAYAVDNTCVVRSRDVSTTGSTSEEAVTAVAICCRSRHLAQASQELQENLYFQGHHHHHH

`Cc1cnc(N[C@H]2CC[C@H](Nc3ccc(-n4cccc(-c5cn[nH]c5)c4=O)cn3)C2)nn1` [Example 199, 6′-(((1S,3S)-3-((6-Methyl-1,2,4-triazin-3-yl)amino)cyclopentyl)amino)-3-(1H-pyrazol-4-yl)-2H-[1,3′-bipyridin]-2-one]: at PCSK9 [1], the EC50 is 100 nM. In addition, the IC50 against PCSK9 [2] is 2 nM; in test [3] it was over 10000 nM; in test [4] it was over 40100 nM.

In the case of `Cc1ccc(=O)n(-c2ccc(N[C@H]3CC[C@H](Nc4ncc(C(=O)NC5COC5)nn4)C3)nc2)c1` [Example 156, 3-(((1S,3S)-3-((5-Methyl-2-oxo-2H-[1,3′-bipyridin]-6′-yl)amino)cyclopentyl)amino)-N-(oxetan-3-yl)-1,2,4-triazine-6-carboxamide], at PCSK9 [1], the EC50 was determined as 100 nM. The IC50 on PCSK9 [2] is 14 nM; in test [3] it was over 10000 nM; in test [4], over 40100 nM.

`COc1ccc(=O)n(-c2ccc(NCC(CCO)CNc3ncc(C)nn3)nc2)c1` (racemic) [Example 317, rac-6′-((4-Hydroxy-2-(((6-methyl-1,2,4-triazin-3-yl)amino)methyl)butyl)amino)-5-methoxy-2H-[1,3′-bipyridin]-2-one]: the EC50 at PCSK9 [1] is over 800 nM. Further, the IC50 on PCSK9 [2] is 4430 nM; in test [4] it was over 40000 nM.

Turning to `Cc1cnc(N[C@H]2CC[C@H](Nc3ccc(-n4cc(-c5cn[nH]c5)ccc4=O)cn3)C2)nn1` [Example 202, 6′-(((1S,3S)-3-((6-Methyl-1,2,4-triazin-3-yl)amino)cyclopentyl)amino)-5-(1H-pyrazol-4-yl)-2H-[1,3′-bipyridin]-2-one], the EC50 on PCSK9 [1] was 100 nM. Moreover, the IC50 on PCSK9 [2] was 3.7 nM; in test [3] it was 7660 nM; in test [4], over 40100 nM.

As for `Cc1ccc(=O)n(-c2ccc(N[C@H]3CC[C@H](Nc4ncc(C)nn4)C3)nc2)c1` [Example 130, 5-Methyl-6′-(((1S,3S)-3-((6-methyl-1,2,4-triazin-3-yl)amino)cyclopentyl)amino)-2H-[1,3′-bipyridin]-2-one], the EC50 at PCSK9 [1] turned out to be 200 nM. The IC50 against PCSK9 [2] was 14 nM; in test [3], 5700 nM; in test [4], over 40100 nM.

`Cc1cnc(N[C@H]2CC[C@H](Nc3ccc(-n4cccc(OC(F)(F)F)c4=O)cn3)C2)nn1` [Example 138, 6′-(((1S,3S)-3-((6-Methyl-1,2,4-triazin-3-yl)amino)cyclopentyl)amino)-3-(trifluoromethoxy)-2H-[1,3′-bipyridin]-2-one]: the EC50 at PCSK9 [1] worked out at 200 nM. The IC50 on PCSK9 [2] is 4 nM; in test [3] it was over 10000 nM; in test [4], over 40100 nM.

As for `Cc1cnc(N[C@H]2CC[C@H](Nc3ccc(-n4cccc(-c5c[nH]nn5)c4=O)cn3)C2)nn1` [Example 200, 6′-(((1S,3S)-3-((6-Methyl-1,2,4-triazin-3-yl)amino)cyclopentyl)amino)-3-(1H-1,2,3-triazol-4-yl)-2H-[1,3′-bipyridin]-2-one], the EC50 at PCSK9 [1] amounted to 100 nM. The half-inhibitory concentration (IC50) against PCSK9 [2] is 2.5 nM; in test [3], over 10000 nM; in test [4], over 40100 nM.

In the case of `Cn1c(=O)n(-c2ccc(N[C@H]3CC[C@H](Nc4ncc(C5CC5)nn4)C3)nc2)c2cc(P(C)(C)=O)ccc21` [Example 125, 3-(6-(((1S,3S)-3-((6-Cyclopropyl-1,2,4-triazin-3-yl)amino)cyclopentyl)amino)pyridin-3-yl)-5-(dimethylphosphoryl)-1-methyl-1,3-dihydro-2H-benzo[d]imidazol-2-one], the EC50 on PCSK9 [1] was 100 nM. In addition, the IC50 against PCSK9 [2] is 2.7 nM; in test [3] it was over 10000 nM; in test [4] it was over 40100 nM.

For the molecule `O=C(NC1COC1)c1cnc(N[C@H]2CC[C@H](Nc3ccc(-n4cccc(Cl)c4=O)cn3)C2)nn1` [Example 157, 3-(((1S,3S)-3-((3-Chloro-2-oxo-2H-[1,3′-bipyridin]-6′-yl)amino)cyclopentyl)amino)-N-(oxetan-3-yl)-1,2,4-triazine-6-carboxamide], at PCSK9 [1], the EC50 came out at 100 nM. Also, the results for the IC50 (on PCSK9 [2]; in test [3]; in test [4]) were 2.1 nM, 7780 nM and over 40100 nM, respectively.

In the case of `Cc1cnc(N[C@H]2CC[C@H](Nc3ccc(-n4ccc(Cl)cc4=O)cn3)C2)nn1` [Example 182, 4-Chloro-6′-(((1S,3S)-3-((6-methyl-1,2,4-triazin-3-yl)amino)cyclopentyl)amino)-2H-[1,3′-bipyridin]-2-one], the EC50 at PCSK9 [1] was 600 nM. In addition, the IC50 is 9.4 nM against PCSK9 [2], over 10000 nM in test [3] and over 40100 nM in test [4].

Consider `O=c1cccnn1-c1cnc(N[C@H]2CC[C@H](Nc3ncc(C4CC4)nn3)C2)nc1` [Example 119, 2-(2-(((1S,3S)-3-((6-Cyclopropyl-1,2,4-triazin-3-yl)amino)cyclopentyl)amino)pyrimidin-5-yl)pyridazin-3(2H)-one], for which the IC50 against PCSK9 [2] is 73 nM; in test [3] it was over 10000 nM; in test [4] it was over 40000 nM.

Regarding `CC(=O)c1cnc(N[C@H]2CC[C@H](Nc3ccc(-n4ccccc4=O)cn3)C2)nn1` [Example 260, 6′-(((1S,3S)-3-((6-Acetyl-1,2,4-triazin-3-yl)amino)cyclopentyl)amino)-2H-[1,3′-bipyridin]-2-one], the results for the IC50 (on PCSK9 [2]; in test [3]; in test [4]) were 101 nM, 1320 nM and over 40000 nM, respectively.

Take `Cc1cnc(N[C@H]2CC[C@H](Nc3ccc(-c4ccccc4C#N)cn3)C2)nn1` [Example 247, 2-(6-(((1S,3S)-3-((6-Methyl-1,2,4-triazin-3-yl)amino)cyclopentyl)amino)pyridin-3-yl)benzonitrile]: the IC50 on PCSK9 [2] was 75 nM; in test [3], over 10000 nM; in test [4], 6600 nM.
